For six cell lines, relative viability results are on record in the supplement of paper PMC10307832.

Holding throughout (experiment): relative viability (nuclei count vs DMSO), 5 days (fraction); higher = more cells survive
Compound in experiment [1]: CN1C=C(C2=CC=CC=C21)/C=C\3/C4=C(C=CC=N4)NC3=O + CC1(C)CCC(c2ccc(Cl)cc2)=C(CN2CCN(c3ccc(C(=O)NS(=O)(=O)c4ccc(N[C@H](CCN5CCOCC5)CSc5ccccc5)c(S(=O)(=O)C(F)(F)F)c4)cc3)CC2)C1 [Navitoclax] (partner 0.5 µM)
The procedure, abridged: (§1)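 Each reported value is a median over duplicate plates. It expresses relative viability: treated-well nuclei count divided by vehicle-well nuclei count. Lung cancer cell lines in 1536-well plates were dosed by pin tool a day after seeding, alone with one drug or with a fixed anchor-drug dose plus five library-drug doses (not always all listed) in √10 steps, and nuclei were counted after 5 days.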

Compound in experiment [2]: CN1C=C(C2=CC=CC=C21)/C=C\3/C4=C(C=CC=N4)NC3=O + C[C@]1(O)C[C@@H](c2nc(-c3ccc4ccc(-c5ccccc5)nc4c3)c3c(N)nccn32)C1 [Linsitinib] (partner 1 µM)
The gist of the method:
as §1

Compound in experiment [3]: CN1C=C(C2=CC=CC=C21)/C=C\3/C4=C(C=CC=N4)NC3=O + Cc1nc(Nc2ncc(C(=O)Nc3c(C)cccc3Cl)s2)cc(N2CCN(CCO)CC2)n1 [Dasatinib] (partner 0.075 µM)
The procedure, abridged: as §1

Compound in experiment [4]: CN1C=C(C2=CC=CC=C21)/C=C\3/C4=C(C=CC=N4)NC3=O + N=C(N)NC(=N)NCCc1ccccc1 [Phenformin] (partner 250 µM)
The gist of the method: as §1

RERF-LC-KJ: the relative viability in experiment [1] (first compound 0.02 µM) amounted to 1.03; in experiment [1] (first compound 0.06325 µM), 0.937; in experiment [1] (first compound 0.2 µM), 0.707; in experiment [1] (first compound 0.6325 µM), 0.691; in experiment [1] (first compound 2 µM) it was 0.51; in experiment [2] (first compound 0.02 µM) it was 0.886. Further, the relative viability in experiment [2] (first compound 0.06325 µM) came to 0.935; in experiment [2] (first compound 0.2 µM), 0.929; in experiment [2] (first compound 0.6325 µM), 0.813; in experiment [2] (first compound 2 µM), 0.84; in experiment [3] (first compound 0.02 µM), 0.898; in experiment [3] (first compound 0.06325 µM), 0.878. For the same cell line, the relative viability is 0.737 in experiment [3] (first compound 0.2 µM); 0.68 in experiment [3] (first compound 0.6325 µM); 0.679 in experiment [3] (first compound 2 µM); 0.434 in experiment [4] (first compound 0.02 µM); 0.415 in experiment [4] (first compound 0.06325 µM); 0.444 in experiment [4] (first compound 0.2 µM). In addition, the results for the relative viability in experiment [4] (first compound 0.6325 µM) and in experiment [4] (first compound 2 µM) were 0.474 and 0.482, respectively.
As to NCI-H441, the relative viability in experiment [1] (first compound 0.02 µM) is 1.08; in experiment [1] (first compound 0.2 µM), 0.906; in experiment [1] (first compound 0.6325 µM) it was 0.596; in experiment [1] (first compound 2 µM), 0.875; in experiment [2] (first compound 0.02 µM) it was 0.634; in experiment [2] (first compound 0.06325 µM) it was 0.588. For the same cell line, the relative viability turned out to be 0.494 in experiment [2] (first compound 0.2 µM); 0.424 in experiment [2] (first compound 0.6325 µM); 0.57 in experiment [2] (first compound 2 µM); 0.541 in experiment [3] (first compound 0.02 µM); 0.638 in experiment [3] (first compound 0.06325 µM); 0.548 in experiment [3] (first compound 0.2 µM). Further, the relative viability is 0.538 in experiment [3] (first compound 0.6325 µM); 0.677 in experiment [3] (first compound 2 µM); 0.795 in experiment [4] (first compound 0.02 µM); 0.754 in experiment [4] (first compound 0.06325 µM); 0.804 in experiment [4] (first compound 0.2 µM); 0.88 in experiment [4] (first compound 0.6325 µM). Further, the relative viability in experiment [4] (first compound 2 µM) was 0.772.
As for PC-14, the relative viability came to 1.05 in experiment [1] (first compound 0.02 µM); 0.985 in experiment [1] (first compound 0.06325 µM); 1.14 in experiment [1] (first compound 0.2 µM); 0.971 in experiment [1] (first compound 0.6325 µM); 0.989 in experiment [1] (first compound 2 µM); 0.95 in experiment [2] (first compound 0.02 µM). Moreover, the relative viability came to 0.933 in experiment [2] (first compound 0.06325 µM); 0.988 in experiment [2] (first compound 0.2 µM); 0.929 in experiment [2] (first compound 0.6325 µM); 0.96 in experiment [2] (first compound 2 µM); 0.227 in experiment [3] (first compound 0.02 µM); 0.223 in experiment [3] (first compound 0.06325 µM). Besides, the relative viability in experiment [3] (first compound 0.2 µM) turned out to be 0.194; in experiment [3] (first compound 0.6325 µM), 0.205; in experiment [3] (first compound 2 µM), 0.186; in experiment [4] (first compound 0.02 µM), 0.54; in experiment [4] (first compound 0.06325 µM), 0.482; in experiment [4] (first compound 0.6325 µM) it was 0.575. The relative viability in experiment [4] (first compound 2 µM) was found to be 0.447.
Take NCI-H2009: the relative viability was 1.11 in experiment [1] (first compound 0.02 µM); 1.12 in experiment [1] (first compound 0.06325 µM); 1.2 in experiment [1] (first compound 0.2 µM); 1.24 in experiment [1] (first compound 0.6325 µM); 1.24 in experiment [1] (first compound 2 µM); 1.24 in experiment [2] (first compound 0.02 µM). In addition, the relative viability in experiment [2] (first compound 0.06325 µM) came out at 1.11; in experiment [2] (first compound 0.2 µM), 1.23; in experiment [2] (first compound 0.6325 µM), 1.23; in experiment [2] (first compound 2 µM) it was 1.25; in experiment [3] (first compound 0.02 µM), 0.265; in experiment [3] (first compound 0.06325 µM), 0.295. In addition, the relative viability in experiment [3] (first compound 0.2 µM) came out at 0.261; in experiment [3] (first compound 0.6325 µM), 0.333; in experiment [3] (first compound 2 µM) it was 0.315; in experiment [4] (first compound 0.02 µM), 0.486; in experiment [4] (first compound 0.06325 µM), 0.518; in experiment [4] (first compound 0.2 µM) it was 0.509. In addition, the relative viability amounted to 0.502 in experiment [4] (first compound 0.6325 µM) and 0.513 in experiment [4] (first compound 2 µM).
For the cell line NCI-H1395, the relative viability in experiment [1] (first compound 0.02 µM) amounted to 1.08; in experiment [1] (first compound 0.06325 µM), 0.967; in experiment [1] (first compound 0.6325 µM), 1.09; in experiment [1] (first compound 2 µM), 1.11; in experiment [2] (first compound 0.02 µM) it was 0.977; in experiment [2] (first compound 0.06325 µM), 1.11. Also, the relative viability in experiment [2] (first compound 0.6325 µM) is 1.15; in experiment [2] (first compound 2 µM), 0.945; in experiment [3] (first compound 0.02 µM), 0.399; in experiment [3] (first compound 0.06325 µM) it was 0.425; in experiment [3] (first compound 0.2 µM) it was 0.371; in experiment [3] (first compound 0.6325 µM), 0.422. The relative viability in experiment [3] (first compound 2 µM) came out at 0.392; in experiment [4] (first compound 0.02 µM), 0.436; in experiment [4] (first compound 0.06325 µM), 0.429; in experiment [4] (first compound 0.2 µM), 0.365; in experiment [4] (first compound 0.6325 µM) it was 0.446; in experiment [4] (first compound 2 µM), 0.414.
With NCI-H1437, the relative viability was 1.08 in experiment [1] (first compound 0.02 µM); 1.08 in experiment [1] (first compound 0.06325 µM); 1.18 in experiment [1] (first compound 0.2 µM); 1.18 in experiment [1] (first compound 0.6325 µM); 1.19 in experiment [1] (first compound 2 µM); 1.06 in experiment [2] (first compound 0.02 µM). Further, the relative viability stood at 1.12 in experiment [2] (first compound 0.06325 µM); 1.25 in experiment [2] (first compound 0.2 µM); 1.18 in experiment [2] (first compound 0.6325 µM); 1.2 in experiment [2] (first compound 2 µM); 0.411 in experiment [3] (first compound 0.02 µM); 0.416 in experiment [3] (first compound 0.06325 µM). For the same cell line, the relative viability in experiment [3] (first compound 0.2 µM) came out at 0.3; in experiment [3] (first compound 0.6325 µM), 0.455; in experiment [3] (first compound 2 µM) it was 0.479; in experiment [4] (first compound 0.02 µM), 0.307; in experiment [4] (first compound 0.06325 µM), 0.325; in experiment [4] (first compound 0.2 µM), 0.231. The relative viability in experiment [4] (first compound 0.6325 µM) was 0.28; in experiment [4] (first compound 2 µM), 0.267.
